Measured values published in PMC11117929, “Benzamide Trimethoprim Derivatives as Human Dihydrofolate Reductase Inhibitors—Molecular Modeling and In Vitro Activity Study” (Biomedicines, 2024).

Key:
[1] = molecular target: T1, recombinant human DHFR (Homo sapiens, UniProt P00374); experiment: Dihydrofolate reductase (DHFR) inhibition assay (assay kit); assay type: biochemical; details: mean of three assays ± S.D.
T1 construct: purchased Sigma Aldrich (St. Louis, MO, USA)
T1 sequence (P00374 1-187): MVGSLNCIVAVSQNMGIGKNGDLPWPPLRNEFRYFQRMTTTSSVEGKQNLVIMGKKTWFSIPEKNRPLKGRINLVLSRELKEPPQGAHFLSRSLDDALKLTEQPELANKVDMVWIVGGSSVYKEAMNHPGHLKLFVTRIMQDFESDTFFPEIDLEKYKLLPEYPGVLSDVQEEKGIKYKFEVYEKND
Excerpt: All reagents were purchased from Fluka (Sigma-Aldrich, Poznań, Poland), Merck (Darmstadt, Germany), or Alfa Aesar (Karlsruhe, Germany) and used without further purification. Dichloromethane (DCM) and dimethylformamide (DMF) were stored in 4 Å molecular sieves. The Dihydrofolate Reductase Assay Kit was purchased from Sigma Aldrich (St. Louis, MO, USA).
The inhibition of dihydrofolate reductase by the new TMP analogs, that is, determining their effect on the activity of recombinant human DHFR, was tested according to the instructions provided by the manufacturer and used previously.
In all experiments, the mean values for three assays ± standard deviations (S.D.) were calculated. The results were submitted to statistical analysis using the Student’s t-test. Differences were considered significant at p < 0.05.

[2] = molecular target: β-secretase (BACE1); parameters: method as in PMID 37834347; details: cited from earlier work
[3] = molecular target: acetylcholinesterase (AChE); parameters: method as in PMID 37834347; details: cited from earlier work
[4] = test system: various cancer cells; parameters: method as in PMID 36680987; details: cited from earlier work
[5] = test system: plasmid DNA; details: ethidium bromide displacement, netropsin as standard; cited from earlier work

SMILES: COc1cc(C(=O)Nc2cccc(NC(=O)c3cc(OC)c(OC)c(OC)c3)c2)cc(OC)c1OC [JW1]
- IC50 [1]: 8.5 ± 0.06 µM

SMILES: COc1cc(OC)cc(C(=O)Nc2cccc(NC(=O)c3cc(OC)cc(OC)c3)c2)c1 [JW2]
- IC50 [1]: 10.15 ± 0.02 µM

SMILES: COc1ccc(C(=O)Nc2cccc(NC(=O)c3ccc(OC)c(OC)c3)c2)cc1OC [JW3]
- IC50 [1]: 9.83 ± 0.03 µM

SMILES: COc1ccc(C(=O)Nc2cccc(NC(=O)c3ccc(OC)cc3)c2)cc1 [JW4]
- IC50 [1]: 15.3 ± 0.04 µM

SMILES: COc1cc(C(=O)Nc2ccc(NC(=O)c3cc(OC)c(OC)c(OC)c3)cc2)cc(OC)c1OC [JW5]
- IC50 [1]: 4.8 ± 0.05 µM

SMILES: COc1cc(OC)cc(C(=O)Nc2ccc(NC(=O)c3cc(OC)cc(OC)c3)cc2)c1 [JW6]
- IC50 [1]: 4.72 ± 0.05 µM

SMILES: COc1ccc(C(=O)Nc2ccc(NC(=O)c3ccc(OC)c(OC)c3)cc2)cc1OC [JW7]
- IC50 [1]: 8.13 ± 0.06 µM

SMILES: COc1ccc(C(=O)Nc2ccc(NC(=O)c3ccc(OC)cc3)cc2)cc1 [JW8]
- IC50 [2]: 9.01 µM
- IC50 [1]: 12.15 ± 0.02 µM
- IC50 [3]: 0.056 µM

SMILES: COc1cc(C(=O)Nc2cccc([N+](=O)[O-])c2)cc(OC)c1OC [MB1]
- IC50 [1]: 10.16 ± 0.01 µM

SMILES: COc1cc(NC(=O)c2cc(OC)c(OC)c(OC)c2)cc(OC)c1OC [MB3]
- IC50 [1]: 9.17 ± 0.01 µM
- antiproliferative activity [4]: showed antiproliferative activity

SMILES: COc1cc(CNC(=O)c2cc(OC)c(OC)c(OC)c2)cc(OC)c1OC [MB4]
- IC50 [1]: 20.17 ± 0.03 µM
- antiproliferative activity [4]: showed antiproliferative activity

SMILES: COc1cc(Cc2cnc(N)nc2N)cc(OC)c1OC [TMP, trimethoprim]
- binding to plasmid DNA [5]: does not bind to the plasmid
